Data reported in US20240366582A1, “TREATMENT OF RAYNAUD'S DISEASE” (Aisa Pharma, Inc., priority 2020, published 2024).

How the values were obtained:
[1] = test system: Raynaud's Phenomenon (RP) attacks in participants with SSc-RP; assay: Average duration of weekly RP attacks (symptomatic / all attacks), patient diary, Phase 2a Part A; format: in vivo, human; conditions: for Average Duration of Weekly RP Attacks (All Attacks), Baseline, Mean / Average Duration of Weekly RP Attacks (All Attacks), Baseline, Median / Average Duration of Weekly RP Attacks (All Attacks), Average Duration, Mean / Average Duration of Weekly RP Attacks (All Attacks), Average Duration, Median: ITT Population-Part A; for Average Duration of Weekly RP Attacks (All Attacks), Baseline, Mean / Average Duration of Weekly RP Attacks (All Attacks), Baseline, Median: last 7 days of screening period, before dosing; for Average Duration of Weekly RP Attacks (All Attacks), Average Duration, Mean / Average Duration of Weekly RP Attacks (All Attacks), Average Duration, Median: last 7 days of the dosing period
Source text: (§1) The Sponsor-developed participant-informed E-Diary has been and will be used in this study to record data. Participants have been or will be required to keep and fill the E-Diary daily as delineated in the SoAs ((FIG. 2 and FIG. 3A and/or FIG. 3B). • The relevant metrics measured by this tool daily are: • Study medication • SSc-RP symptoms (Reporting an attack including duration of attack) • Severity of the attack considering all symptoms of the attack e.g. tingling, numbness, pain, color changes (VAS 0-10 cm scale) • Participant's location at the time of the attack (inside home/outside home) • Selecting symptoms experienced during the attack (tingling, numbness, pain, color changes, other) • Pain rating during the attack (11-point Likert scale) • The RCS based on how much difficulty participants had with Raynaud's today, how many attacks the participant had, and how long they lasted. Participants will also be asked to consider how much pain, numbness, or other symptoms the Raynaud's caused in fingers (including painful sores), and how much the Raynaud's alone affected the use of hands today (VAS 0-10 cm scale). • The relevant metrics measured by this tool at the in-clinic visit (once in a Dosing Period) are: • Digital ulcer severity (VAS 0-10 cm scale)—Applicable only if participant has digital ulcers. • Scleroderma Health Assessment Questionnaire which includes Raynaud's VAS measuring participant quality of life over the past • Note: Digital ulcer severity (VAS 0-10 cm scale) and SHAQ scale can also be done on paper in-clinic, if necessary. Also, external temperature will be a feed into the E-Diary database based on participant's location.
The absolute change in average duration of weekly RP attacks from baseline to the end of each dosing period was and will be a secondary outcome variable. The sponsor-developed participant-informed diary was and will be used to record data. Average duration of weekly RP attacks is defined as the total duration of RP attacks divided by total number of RP attacks within the last 7 days of each dosing period. Total duration of RP attacks during the last 7 days of screening period divided by the total number of RP attacks will be used as baseline for the analysis of all periods. The variable will be calculated similar to frequency data as before.
The following data was actually obtained in accordance with the protocol and plan delineated in Examples 1 and 2. The accompanying data involved 11 patients out of the planned 76 patient study. The study was done in patients with scleroderma (systemic sclerosis) who had relatively frequent Raynaud symptoms as they needed to average at least one attack per day during a screening period of up to two weeks. In this first phase of this double-blind placebo-controlled, prospective randomized study, patients were treated in parallel and after meeting study criteria were randomized to receive either placebo, cilnidipine 10 mg daily, cilnidipine 20 mg daily, tadalafil 5 mg daily, cilnidipine 10 mg plus 5 mg of tadalafil, or cilnidipine 20 mg plus 5 mg of tadalafil.

[2] = test system: Raynaud's Phenomenon (RP) attacks in participants with SSc-RP; assay: Frequency of weekly RP attacks (symptomatic attacks / all attacks), patient diary, Phase 2a Part A; format: in vivo, human
Procedure: A randomized, placebo-controlled phase 2a study was performed and is in progress to assess the safety and efficacy of cilnidipine (10 mg and 20 mg) alone and in combination with 5 mg tadalafil, in participants with diagnosis of secondary Raynaud's disease.
Part A-Double-blind, Placebo-controlled, Parallel-group, Dose selection, will assess the safety and efficacy of two doses of cilnidipine (10 mg and 20 mg), alone and in combination with tadalafil. A total of 36 participants will be randomized to one of six pre-specified treatment arms. See Example 3 for data obtained in this phase of the study thus far, on 11 participants.
The Sponsor-developed participant-informed E-Diary has been and will be used in this study to record data. […]

[3] = test system: Raynaud's Phenomenon (RP) attacks in participants with SSc-RP; assay: Average severity of weekly RP attacks (VAS 0-10; symptomatic / all attacks), patient diary, Phase 2a Part A; format: in vivo, human; conditions: for Average Severity of Weekly Symptomatic RP Attacks, Mean: Pooled Cilnidipine 20 mg and Cilnidipine 20 mg + Tadalafil 5 mg, severity (0-10), ITT Population - Part A
Source text: as §1
The absolute change in average severity of weekly RP attacks (VAS 0-10 cm scale) from baseline to the end of each Dosing Period was and will be a secondary outcome variable. The sponsor-developed participant-informed diary will be used to record data. […] The variable will be calculated similar to frequency data as before. […]

[4] = in vivo; cited from earlier work
[5] = target: Nav 1.7 sodium channel (Homo sapiens, UniProt Q15858); conditions: see WO 2021/178903; cited from earlier work
Nav 1.7 sodium channel, sequence (Q15858 whole entry): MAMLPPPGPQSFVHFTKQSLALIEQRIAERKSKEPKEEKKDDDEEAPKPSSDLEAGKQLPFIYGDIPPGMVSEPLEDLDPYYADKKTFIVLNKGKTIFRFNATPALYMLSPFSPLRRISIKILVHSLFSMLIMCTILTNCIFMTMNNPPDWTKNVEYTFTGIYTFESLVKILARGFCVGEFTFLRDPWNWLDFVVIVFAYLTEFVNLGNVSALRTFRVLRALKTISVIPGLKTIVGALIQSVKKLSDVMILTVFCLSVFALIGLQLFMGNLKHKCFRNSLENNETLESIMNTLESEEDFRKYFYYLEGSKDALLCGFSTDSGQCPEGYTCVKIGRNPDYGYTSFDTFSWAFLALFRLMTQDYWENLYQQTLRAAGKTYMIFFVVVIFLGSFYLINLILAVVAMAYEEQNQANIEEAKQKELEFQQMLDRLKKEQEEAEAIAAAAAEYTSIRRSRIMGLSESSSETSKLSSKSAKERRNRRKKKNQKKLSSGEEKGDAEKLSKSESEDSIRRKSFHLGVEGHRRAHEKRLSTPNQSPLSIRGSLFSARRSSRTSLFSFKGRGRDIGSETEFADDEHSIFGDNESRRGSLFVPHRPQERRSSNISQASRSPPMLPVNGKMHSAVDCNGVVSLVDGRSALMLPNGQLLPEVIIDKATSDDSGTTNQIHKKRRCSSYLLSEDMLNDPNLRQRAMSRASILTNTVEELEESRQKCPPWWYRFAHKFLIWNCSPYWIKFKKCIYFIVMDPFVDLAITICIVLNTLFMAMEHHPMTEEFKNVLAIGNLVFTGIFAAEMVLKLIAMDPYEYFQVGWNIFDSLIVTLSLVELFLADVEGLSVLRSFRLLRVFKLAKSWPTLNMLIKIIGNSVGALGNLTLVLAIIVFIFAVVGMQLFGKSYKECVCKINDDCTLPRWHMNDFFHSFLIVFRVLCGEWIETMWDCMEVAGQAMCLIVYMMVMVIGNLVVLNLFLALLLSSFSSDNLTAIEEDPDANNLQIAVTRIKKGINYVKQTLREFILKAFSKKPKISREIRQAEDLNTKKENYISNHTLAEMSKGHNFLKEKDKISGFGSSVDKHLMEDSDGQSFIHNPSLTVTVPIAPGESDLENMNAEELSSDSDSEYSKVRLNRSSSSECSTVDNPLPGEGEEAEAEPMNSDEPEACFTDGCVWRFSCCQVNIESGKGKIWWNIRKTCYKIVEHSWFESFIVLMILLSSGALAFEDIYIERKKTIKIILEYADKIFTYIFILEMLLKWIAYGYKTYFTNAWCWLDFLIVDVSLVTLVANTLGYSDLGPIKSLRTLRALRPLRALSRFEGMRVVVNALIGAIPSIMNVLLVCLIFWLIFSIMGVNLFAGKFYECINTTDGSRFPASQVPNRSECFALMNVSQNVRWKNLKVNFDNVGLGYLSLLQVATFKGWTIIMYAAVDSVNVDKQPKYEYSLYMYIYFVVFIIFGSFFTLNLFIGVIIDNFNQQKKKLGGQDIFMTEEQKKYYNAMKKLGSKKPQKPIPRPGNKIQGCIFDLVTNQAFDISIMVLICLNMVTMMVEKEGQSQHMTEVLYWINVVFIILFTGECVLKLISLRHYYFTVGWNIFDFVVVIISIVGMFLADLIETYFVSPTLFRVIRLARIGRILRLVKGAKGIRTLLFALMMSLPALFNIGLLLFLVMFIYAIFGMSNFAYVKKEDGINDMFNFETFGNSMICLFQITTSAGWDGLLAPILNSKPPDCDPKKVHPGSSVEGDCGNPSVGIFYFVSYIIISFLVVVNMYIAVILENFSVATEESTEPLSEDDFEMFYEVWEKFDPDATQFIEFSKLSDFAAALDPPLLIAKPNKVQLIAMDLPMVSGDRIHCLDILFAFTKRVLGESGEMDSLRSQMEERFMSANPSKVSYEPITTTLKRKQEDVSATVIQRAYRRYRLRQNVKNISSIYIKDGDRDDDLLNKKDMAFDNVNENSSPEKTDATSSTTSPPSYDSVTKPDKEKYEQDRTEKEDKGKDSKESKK

[6] = by Baseline RCS, first subgroup (RCS category not given)
[7] = by Baseline RCS, second subgroup (r96-r180, RCS category not given)

SMILES | Average Duration of Weekly RP Attacks (All Attacks), Baseline, Mean ([1]; Excluding Outliers) [min] | Average Duration of Weekly RP Attacks (All Attacks), Baseline, Median ([1]; Excluding Outliers) [min] | Average Duration of Weekly RP Attacks (All Attacks), Baseline, Mean [1] [min] | Average Duration of Weekly RP Attacks (All Attacks), Baseline, Median [1] [min] | Average Duration of Weekly RP Attacks (All Attacks), Baseline, Mean [1, 6] [min] | Average Duration of Weekly RP Attacks (All Attacks), Baseline, Median [1, 6] [min] | other results
COCCOC(=O)C1=C(C)NC(C)=C(C(=O)OC/C=C/c2ccccc2)C1c1cccc([N+](=O)[O-])c1 (stereo not drawn) [Cilnidipine 10 mg] | 40.00 | 40.00 | 40.00 | 40.00 | 40.00 | 40.00 | 
COCCOC(=O)C1=C(C)NC(C)=C(C(=O)OC/C=C/c2ccccc2)C1c1cccc([N+](=O)[O-])c1 (stereo not drawn) [Cilnidipine 20 mg] | 17.81 | 17.81 | 17.81 | 17.81 | 17.81 | 17.81 | 
COCCOC(=O)C1=C(C)NC(C)=C(C(=O)OC/C=C/c2ccccc2)C1c1cccc([N+](=O)[O-])c1 (stereo not drawn) [Cilnidipine, cilnidipine, reference compound] |  |  |  |  |  |  | patients in whom average frequency of Raynaud's attacks decreased more than 25% ([2]; all cilnidipine and cilnidipine plus tadalafil treated patients together (n=7)): 6 of 7; change in weekly frequency of Raynaud attacks (in words) ([2]; cilnidipine and cilnidipine plus tadalafil treated patients (n=7), tadalafil alone, milder and more severe disease): decrease; change in duration of Raynaud attacks (in words) ([1]; cilnidipine or cilnidipine plus tadalafil (n=7), tadalafil monotherapy (n=2)): decrease greater than that seen in placebo treated patients; Average Severity of Weekly Symptomatic RP Attacks, Mean ([3]; Excluding Outliers): 3.40; Average Severity of Weekly Symptomatic RP Attacks, Mean [3]: 3.40; change in severity of attacks (in words) ([3]; cilnidipine monotherapy (n=3), cilnidipine plus tadalafil (n=4) vs tadalafil monotherapy (n=2)): 20 mg reducing severity more than 10 mg; Tmax (time to achieve maximal plasma concentrations) [4]: 2 h; activity against the Nav 1.7 sodium channel [5]: has activity
COCCOC(=O)C1=C(C)NC(C)=C(C(=O)OC/C=C/c2ccccc2)C1c1cccc([N+](=O)[O-])c1 (stereo not drawn) [Pooled Cilnidipine] | 25.21 | 25.00 |  |  | 25.21 | 25.00 | Average Duration of Weekly RP Attacks (All Attacks), Average Duration, Mean ([1]; Excluding Outliers): 21.66 min; Average Duration of Weekly RP Attacks (All Attacks), Average Duration, Median ([1]; Excluding Outliers): 30.45 min; Average Duration of Weekly RP Attacks (All Attacks), Average Duration, Mean [1, 6]: 21.66 min; Average Duration of Weekly RP Attacks (All Attacks), Average Duration, Median [1, 6]: 30.45 min
CN1CC(=O)N2[C@H](c3ccc4c(c3)OCO4)c3[nH]c4ccccc4c3C[C@@H]2C1=O [Tadalafil 5 mg] | 10.92 | 10.92 |  |  |  |  | Average Duration of Weekly RP Attacks (All Attacks), Baseline, Mean [1, 7]: 320.46 min; Average Duration of Weekly RP Attacks (All Attacks), Baseline, Median [1, 7]: 320.46 min
CCOC(=O)C1=C(COCCN)NC(C)=C(C(=O)OC)C1c1ccccc1Cl (stereo not drawn) [amlodipine] |  |  |  |  |  |  | time to reach maximal plasma concentrations [4]: 10 h
